Source: PMC5988656, “Phase I studies of AZD1208, a proviral integration Moloney virus kinase inhibitor in solid and haematological cancers” (British Journal of Cancer, 2018)

Test system: patients with recurrent or refractory AML
Assay: AML dose-escalation study: safety and tolerability (AEs, DLTs)
Assay type: in vivo, human
Excerpt: Conducted at three centres in the USA and one in Canada. Dose escalation followed a conventional 3 + 3 design. […] In the first cohort, dosing between the first and subsequent patients was staggered with a 7-day interval. Dose-escalation decisions were based on the safety and tolerability data from ≥3 evaluable patients (or six if one of the first three patients experienced a dose-limiting toxicity [DLT]).
AZD1208 could be escalated by up to 100% in subsequent cohorts until one DLT was observed, after which succeeding doses were escalated by up to 50%.
In the case of a DLT, the cohort was expanded to six patients. If a DLT occurred in ≥2 patients within a cohort, the dose was determined to be a non-tolerated dose (NTD) and dose escalation was stopped.
Grade 3 or 4 toxicities not attributable to the disease or disease-related processes under investigation, and occurring before the end of Cycle 1, were considered DLTs.
The NTD was identified as the dose at which ≥2 DLTs occurred in a given cohort.

## N[C@@H]1CCCN(c2c(/C=C3\SC(=O)NC3=O)cccc2-c2ccccc2)C1 [AZD1208]
120 mg, n = 4
  Abdominal pain (all-grade AE): 1 (25.0) n (%)
  Asthenia (all-grade AE): 1 (25.0) n (%)
  Chills (all-grade AE): 0 n (%)
  Cough (all-grade AE): 0 n (%)
  Decreased appetite (all-grade AE): 0 n (%)
  Dehydration (all-grade AE): 0 n (%)
  Diarrhoea (all-grade AE): 1 (25.0) n (%)
  Dyspnoea (all-grade AE): 0 n (%)
  Fatigue (all-grade AE): 1 (25.0) n (%)
  Febrile neutropenia (all-grade AE): 3 (75.0) n (%)
  Headache (all-grade AE): 0 n (%)
  Hyperglycaemia (all-grade AE): 0 n (%)
  Hypocalcaemia (all-grade AE): 1 (25.0) n (%)
  Hypokalaemia (all-grade AE): 0 n (%)
  Hypomagnesaemia (all-grade AE): 1 (25.0) n (%)
  Hypophosphataemia (all-grade AE): 1 (25.0) n (%)
  Hypotension (all-grade AE): 1 (25.0) n (%)
  Maculopapular rash (all-grade AE): 0 n (%)
  Nausea (all-grade AE): 3 (75.0) n (%)
  Oedema peripheral (all-grade AE): 1 (25.0) n (%)
  Patients with any AE (all-grade AE): 3 (75.0) n (%)
  Pneumonia (all-grade AE): 1 (25.0) n (%)
  Pyrexia (all-grade AE): 0 n (%)
  Rash (all-grade AE): 0 n (%)
  Renal failure acute (all-grade AE): 0 n (%)
  Stomatitis (all-grade AE): 1 (25.0) n (%)
  Vision blurred (all-grade AE): 1 (25.0) n (%)
  Vomiting (all-grade AE): 2 (50.0) n (%)
240 mg (bacteremia, peristomal ulcer)
  Patients in whom AZD1208 was discontinued as a result of SAEs and AEs: 1 n
240 mg, n = 6
  Abdominal pain (all-grade AE): 0 n (%)
  Asthenia (all-grade AE): 0 n (%)
  Chills (all-grade AE): 1 (16.7) n (%)
  Cough (all-grade AE): 1 (16.7) n (%)
  DLT detail, action taken: Peristomal ulcer, drug permanently discontinued
  Decreased appetite (all-grade AE): 1 (16.7) n (%)
  Dehydration (all-grade AE): 0 n (%)
  Diarrhoea (all-grade AE): 1 (16.7) n (%)
  Dyspnoea (all-grade AE): 1 (16.7) n (%)
  Fatigue (all-grade AE): 1 (16.7) n (%)
  Febrile neutropenia (all-grade AE): 2 (33.3) n (%)
  Headache (all-grade AE): 0 n (%)
  Hyperglycaemia (all-grade AE): 0 n (%)
  Hypocalcaemia (all-grade AE): 1 (16.7) n (%)
  Hypokalaemia (all-grade AE): 0 n (%)
  Hypomagnesaemia (all-grade AE): 1 (16.7) n (%)
  Hypophosphataemia (all-grade AE): 0 n (%)
  Hypotension (all-grade AE): 2 (33.3) n (%)
  Maculopapular rash (all-grade AE): 1 (16.7) n (%)
  Nausea (all-grade AE): 4 (66.7) n (%)
  Oedema peripheral (all-grade AE): 1 (16.7) n (%)
  Patients with any AE (all-grade AE): 6 (100.0) n (%)
  Pneumonia (all-grade AE): 3 (50.0) n (%)
  Pyrexia (all-grade AE): 0 n (%)
  Rash (all-grade AE): 0 n (%)
  Renal failure acute (all-grade AE): 1 (16.7) n (%)
  Stomatitis (all-grade AE): 1 (16.7) n (%)
  Vision blurred (all-grade AE): 0 n (%)
  Vomiting (all-grade AE): 3 (50.0) n (%)
480 mg (vomiting, gingival pain)
  Patients in whom AZD1208 was discontinued as a result of SAEs and AEs: 2 n
480 mg, n = 6
  Abdominal pain (all-grade AE): 1 (16.7) n (%)
  Asthenia (all-grade AE): 1 (16.7) n (%)
  Chills (all-grade AE): 0 n (%)
  Cough (all-grade AE): 1 (16.7) n (%)
  DLT detail, action taken: Fatigue, drug interrupted
  Decreased appetite (all-grade AE): 0 n (%)
  Dehydration (all-grade AE): 0 n (%)
  Diarrhoea (all-grade AE): 3 (50.0) n (%)
  Dyspnoea (all-grade AE): 2 (33.3) n (%)
  Fatigue (all-grade AE): 4 (66.7) n (%)
  Febrile neutropenia (all-grade AE): 0 n (%)
  Headache (all-grade AE): 3 (50.0) n (%)
  Hyperglycaemia (all-grade AE): 2 (33.3) n (%)
  Hypocalcaemia (all-grade AE): 1 (16.7) n (%)
  Hypokalaemia (all-grade AE): 3 (50.0) n (%)
  Hypomagnesaemia (all-grade AE): 2 (33.3) n (%)
  Hypophosphataemia (all-grade AE): 2 (33.3) n (%)
  Hypotension (all-grade AE): 2 (33.3) n (%)
  Maculopapular rash (all-grade AE): 0 n (%)
  Nausea (all-grade AE): 1 (16.7) n (%)
  Oedema peripheral (all-grade AE): 3 (50.0) n (%)
  Patients with any AE (all-grade AE): 6 (100.0) n (%)
  Pneumonia (all-grade AE): 2 (33.3) n (%)
  Pyrexia (all-grade AE): 1 (16.7) n (%)
  Rash (all-grade AE): 1 (16.7) n (%)
  Renal failure acute (all-grade AE): 2 (33.3) n (%)
  Stomatitis (all-grade AE): 3 (50.0) n (%)
  Vision blurred (all-grade AE): 3 (50.0) n (%)
  Vomiting (all-grade AE): 2 (33.3) n (%)
700 mg (lung infection, GBS, Escherichia spp. sepsis)
  Patients in whom AZD1208 was discontinued as a result of SAEs and AEs: 3 n
700 mg, n = 7
  Abdominal pain (all-grade AE): 3 (42.9) n (%)
  Asthenia (all-grade AE): 1 (14.3) n (%)
  Chills (all-grade AE): 1 (14.3) n (%)
  Cough (all-grade AE): 4 (57.1) n (%)
  DLT detail, action taken: GBS, drug permanently discontinued
  Decreased appetite (all-grade AE): 2 (28.6) n (%)
  Dehydration (all-grade AE): 0 n (%)
  Diarrhoea (all-grade AE): 5 (71.4) n (%)
  Dyspnoea (all-grade AE): 2 (28.6) n (%)
  Fatigue (all-grade AE): 2 (28.6) n (%)
  Febrile neutropenia (all-grade AE): 1 (14.3) n (%)
  Headache (all-grade AE): 1 (14.3) n (%)
